From patent publication US20240423981A1, “TREATMENT OF HCM WITH PYRIMIDINEDIONE COMPOUNDS” (MyoKardia, Inc., priority 2017, published 2024)
“Also recorded” adds a separate entry of the source.

Key:
Assay type in all cases: in vivo, human
[1] = system: subjects with symptomatic HCM and LVOT obstruction; assay: Phase 2 open-label pilot study Pioneer-HCM-A (Cohort A); settings: for Lateral e′ Week 12: baseline 6.9 ± 1.9; for E/e′ Week 12: baseline 12.9 ± 3.3
Description: (§1) This is a phase 2 open-label pilot study to evaluate the efficacy, PK, PD, safety, and tolerability of Compound 1 in subjects with symptomatic HCM and LVOT obstruction. Approximately 10 adult subjects with symptomatic HCM, a resting LVOT gradient ≥30 mm Hg, and post-exercise peak LVOT gradient ≥50 mm Hg will be enrolled. The study will have a 12-week treatment phase and a 4-week washout phase (FIG. 3).
At Screening, subjects will undergo transthoracic echocardiography (TTE) in the supine or left lateral decubitus position. In addition to a standardized complete TTE, both resting instantaneous peak LVOT gradient (baseline) and provoked peak LVOT gradient will be collected. Subjects will then undergo a standard symptom-limited exercise test (hemodynamic stress echocardiography). Subjects will be assessed systematically for symptoms of dyspnea and/or angina. Instantaneous peak LVOT gradient will be assessed immediately post-exercise by TTE.
On Day 1, resting TTE will be performed, blood samples will be drawn for PK, and subjects will have an assessment of pVO2, VE/VCO2, and other variables via cardiopulmonary exercise testing (CPET). After CPET, subjects will be dosed with open-label oral Compound 1 at the investigational site and will be observed for at least 1 hour after dosing, with assessment of vital signs and ECGs at 1 hour postdose. Subjects will then be supplied with Compound 1 sufficient for QD dosing at home.
Subjects will be evaluated at the investigational site at Weeks 1, 2, 3, 4, 5, 6, 7, 8, 12, and 16. At each of these visits, resting TTE will be performed and blood samples will be drawn for PK. On study visit days, study medication will be administered at the investigational site in order to collect blood samples for PK about 2 hours prior to dosing. At Weeks 4, 12, and 16, hemodynamic stress echocardiography will be performed and peak LVOT gradient will be assessed. CPET will be conducted between Weeks 10 and 12 (inclusive).
The Compound 1 starting dose will be 10 mg for subjects who weigh […] 60 kg and 15 mg for subjects who weigh >60 kg. At the end of Week 4 (Day 28), each subject's LVEF will be evaluated, and the subject's dose may be increased, decreased, or remain unchanged based on the predetermined criteria in Table 6, in consultation between the investigator and the medical monitor. If Compound 1 plasma concentration exceeds 750 ng/mL at Week 2, no dose increase is allowed, regardless of LVEF data at Week 4; however, dose decrease per LVEF data is allowed in this circumstance. The subject will subsequently receive that dose from Week 5 through Week 12.
The following results were obtained generally following the procedures described in Example 3. Each subject in the following trials discontinued β-blocker, calcium-channel blocker, and/or disopyramide therapy at least 14 days prior to the screening visit.

[2] = Parts A and B of the phase 2 trial (PIONEER), pooled findings; settings: human, plasma, oral; read-out: concentrations associated with excessive pharmacological effect
Description: as §1
(§2) This trial was similar to the trial described in Example 3, but will have several important differences. For example, subjects in the Phase 2-B trial will not be required to discontinue their β-blocker therapy, and the dose of Compound 1 will be reduced to 2 to 5 mg.
(§3) Compound 1 concentrations were measured in human plasma using high pressure liquid chromatography (HPLC) coupled with tandem mass spectrometry (MS/MS). This method was used for Compound 1 bioanalysis in all clinical trials to date, and all clinical data has been collected using plasma. A brief description of the method follows.
(§4) Liquid-liquid extraction and HPLC/MS/MS was used to determine the concentration of Compound 1 in human plasma. An aliquot of the extract was injected onto an HPLC instrument that is coupled with a triple quadrupole mass spectrometer (Sciex API5500). A Lux 3u Cellulose-4 HPLC column (150×2.0 mm) from […], was used to separate Compound 1, from interfering compounds that may be present in the sample extract. The internal standard was a multi-deuterated analog of Compound 1 to ensure that the internal standard used in the assay had similar chemical properties to the analyte but a different mass for selective detection. The peak area of the product ion of Compound 1 was measured against the peak area of the product ion of the internal standard for determination of concentration.

[3] = system: obstructive HCM (oHCM) patients; assay: as above
Description: as §1, §2, §3, §4

[4] = Cohort A (10-15 mg/day), N = 10, mean ± SD
[5] = Cohort A, baseline to Week 12, n 10

CC(C)n1c(=O)cc(N[C@@H](C)c2ccccc2)[nH]c1=O [Compound 1, (S)-3-Isopropyl-6-((1-phenylethyl)amino) pyrimidine-2, 4(1H,3H)-dione]
LV filling pressure and diastolic wall stress ([1]; 15 mg/day, oHCM patients): improvement in LV filling pressure (reduced E/e′) and diastolic wall stress (reduced NTpro-BNP)
LVOT gradient ([1]; 15 mg/day, oHCM patients): eliminates LVOT gradient
resting LV systolic function ([1]; 15 mg/day, oHCM patients): decreases resting LV systolic function
resting LVOT gradient ([1]; 10, 15 or 20 mg, weeks 0 to 12): abolished as early as week 1 in most subjects and by week 2 in all subjects
change in LVEF (stress ejection fraction) ([1]; 10 or 15 mg, weeks 0, 4 and 12): minimal change
stress LVOT gradient ([1]; 10 or 15 mg, weeks 0, 4 and 12): abolished
Resting LVEF Week 12 ([1]; Cohort A (10-15 mg/day), LVEF N = 4, mean ± SD, baseline 70 ± 6): 54 ± 12%
Post-exercise LVEF Week 12 ([1]; Cohort A (10-15 mg/day), LVEF N = 4, mean ± SD, baseline 76 ± 5): 60 ± 22%
Septal e′ Week 12 ([1]; Cohort A (10-15 mg/day), N = 10, mean ± SD, baseline 5 4 ± 1 6): 6.4 ± 1.5 cm/s
Mean e′ Week 12 ([1]; Cohort A (10-15 mg/day), N = 10, mean ± SD, baseline 5.7 ± 1.2): 7.4 ± 1.6 cm/s
Lateral e′ Week 12 [1, 4]: 8.8 ± 1.6 cm/s
E/e′ Week 12 [1, 4]: 9.1 ± 2.1
Resting Gradient Week 12 ([1]; Cohort A (10-15 mg/day), N = 10, mean ± SD, baseline 68 ± 34): 14 ± 25 mm Hg
Post-exercise Gradient Week 12 ([1]; Cohort A (10-15 mg/day), N = 10, mean ± SD, baseline 125 ± 60): 19 ± 13 mm Hg
NT-pro BNP Week 12 ([1]; Cohort A (10-15 mg/day), N = 10, mean ± SD, baseline 939 ± 647): 235 ± 417 pg/mL
E/e′ Delta ([1]; Cohort A, baseline to Week 12, n 8): −3.6 ± 3.7
Lateral e′ Delta ([1]; Cohort A, baseline to Week 12, n 9): 1.6 ± 1.9 cm/s
Dyspnea score Delta [1, 5]: −3.1 ± 1.4
LA Vol (index) Delta [1, 5]: 1 ± 7 mL/m^2
NT-proBNP Delta [1, 5]: −459 ± 722
LVEDV Delta ([1]; Cohort A, baseline to Week 12, n 11): 16 ± 21
Dyspnea score Week 12 ([1]; Cohort A, baseline 4.9 ± 1.6, n 10): 1.7 ± 1.8
Lateral e′ Week 12 ([1]; Cohort A, n 9): 8.7 ± 1.6 cm/s
E/e′ Week 12 ([1]; Cohort A, n 8): 9.1 ± 2.2
LA Vol (index) Week 12 ([1]; Cohort A, baseline 30 ± 10, n 10): 31 ± 8 mL/m^2
LVEDV Week 12 ([1]; Cohort A, baseline 82 ± 24, n 11): 97 ± 24
NT-proBNP Week 12 ([1]; Cohort A, baseline 930 ± 647, n 10): 454 ± 551
dyspnea symptom score ([1]; Day 1 to Week 16, dosing through week 12): improves with Compound 1 administration, returning after cessation of therapy; also recorded: improve
resting LVEF versus Compound 1 concentration ([1]; FIG. 8): exposure-dependent decrease
increase in exercise capacity (pVO2) versus change in LVEF ([1]; FIG. 14): greatest in patients with the least decrease in LVEF
oHCM phenotype after cessation (resting LVOT gradient, resting LVEF) ([1]; administration stopped after week 12): returns after cessation of Compound 1
most robust improvements in pVO2 ([1]; associated with minimal change in resting LVEF): > 3 mL/min/kg
peak VO2 during CPET ([1]; baseline versus week 12): improves CPET metric; also recorded: improve
peak circulatory power during CPET ([1]; baseline versus week 12): improves CPET metric; also recorded: improve
tolerability ([1]; doses up to 20 mg QD): well tolerated
Compound 1 concentration associated with reduction of resting gradient below hemodynamic significance ([1]; plasma): > 225 ng/mL
NT-proBNP levels ([1]; weeks 0, 4, 8 and 12): reduced after 4 weeks of Compound 1 but can rebound with higher exposures
NYHA Class ([1]; with Compound 1 therapy): improve
concentration at 12 weeks [2]: > 1000 ng/mL
effects accompanying the gradient reduction ([3]; Parts A and B): improvement in symptoms, pVO2 during exercise, a decrease in NT pro-BNP and improvement in echocardiographic measures of diastolic function
diastolic function ([3]; Parts A and B, Tables 9 and 10): diastolic improvement
tolerability of the therapeutic concentration range ([3]; associated with limited decrease in LVEF): well tolerate
compliance of the left ventricle ([3]; increase in LVEDV with reduction in LV filling pressure (E/e′), emerging data, Cohorts A and B): improving compliance of the left ventricle
LVEF maintained with clinical improvement in oHCM (symptom improvement and peak VO2) ([3]; plasma concentrations of 350 to 700 ng/mL): ≥ 55%
LVOT gradient level reached ([3]; plasma concentrations of 350 to 700 ng/mL, generally): < 30 mm Hg
